Patent US12492173B2, “Herbicidal substituted N-tetrazolyl aryl carboxamides” (Bayer Aktiengesellschaft, priority 2019, dated 2025)

Tests used:
Type in all cases: in vivo
Veronica persica = experiment: Pre-emergence herbicidal action, VERPE; conditions: dosage 320 g/ha, scored visually after 3 weeks vs untreated controls (100% = plants have died)
How it was run: (§1)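 Pre-emergence soil spray over sandy loam-covered seeds; greenhouse 3 weeks; % visual damage (0% = control, 100% = dead).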

Polygonum convolvulus = experiment: Pre-emergence herbicidal action, POLCO; conditions: dosage 320 g/ha, scored visually after 3 weeks vs untreated controls (100% = plants have died)
How it was run: as §1

Echinochloa crus-galli = experiment: Post-emergence herbicidal action, ECHCG; design: key: % herbicidal action vs untreated; 100 = plants died, 0 = like control
How it was run: (§2)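 Greenhouse post-emergence test: weeds sown in sandy loam were sprayed once at one leaf, 2 to 3 weeks from sowing, with aqueous WP or EC preparations carrying 0.2% wetting agent. Effect is scored visually after about 3 weeks.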

Amaranthus retroflexus = experiment: Pre-emergence herbicidal action, AMARE; conditions: dosage 320 g/ha, scored visually after 3 weeks vs untreated controls (100% = plants have died)
How it was run: as §1

Setaria viridis = experiment: Pre-emergence herbicidal action, SETVI; conditions: dosage 320 g/ha, scored visually after 3 weeks vs untreated controls (100% = plants have died)
How it was run: as §1

Pharbitis purpurea = experiment: Post-emergence herbicidal action, PHBPU
How it was run: as §2

Stellaria media = experiment: Post-emergence herbicidal action, STEME; design: key: % herbicidal action vs untreated; 100 = plants died, 0 = like control
How it was run: as §2

SMILES	herbicidal activity VERPE (Veronica persica) [%]	herbicidal activity POLCO (Polygonum convolvulus) [%]	herbicidal action ECHCG (Echinochloa crus-galli; Dosage 80 g/ha)	herbicidal activity AMARE (Amaranthus retroflexus) [%]	herbicidal activity SETVI (Setaria viridis) [%]	herbicidal action PHBPU (Pharbitis purpurea; Dosage 80 g/ha)	herbicidal action STEME (Stellaria media; Dosage 80 g/ha)	herbicidal action ECHCG (Echinochloa crus-galli; post-emergence, dosage 80 g/ha) [%]	herbicidal action PHBPU (Pharbitis purpurea; post-emergence, dosage 80 g/ha) [%]	herbicidal action STEME (Stellaria media; post-emergence, dosage 80 g/ha) [%]
CCCn1nnnc1NC(=O)c1ccc(C(F)(F)F)c(CS(C)(=O)=O)c1OC [Example 3-136]	100	80	100	100	100	90	100			
CCSCc1c(C(F)(F)F)ccc(C(=O)Nc2nnnn2CC)c1Br [Example 2-383]	100	90		100	100			90	90	90
CCn1nnnc1NC(=O)c1ccc(C(F)F)c(CSC)c1C [Example 2-107]	100	80	90	100	100	90	100			
